Data reported in ChEMBL document CHEMBL5620362 (Eur J Med Chem, 2023).

Legend:
[1] = molecular target: T1, Nuclear receptor ROR-gamma (Homo sapiens, UniProt P51449); assay: Binding affinity to CM5 chip-immobilized recombinant ROR-gamma LBD (unknown origin) assessed as dissociation constant by SPR analysis
T1 sequence (P51449 whole entry): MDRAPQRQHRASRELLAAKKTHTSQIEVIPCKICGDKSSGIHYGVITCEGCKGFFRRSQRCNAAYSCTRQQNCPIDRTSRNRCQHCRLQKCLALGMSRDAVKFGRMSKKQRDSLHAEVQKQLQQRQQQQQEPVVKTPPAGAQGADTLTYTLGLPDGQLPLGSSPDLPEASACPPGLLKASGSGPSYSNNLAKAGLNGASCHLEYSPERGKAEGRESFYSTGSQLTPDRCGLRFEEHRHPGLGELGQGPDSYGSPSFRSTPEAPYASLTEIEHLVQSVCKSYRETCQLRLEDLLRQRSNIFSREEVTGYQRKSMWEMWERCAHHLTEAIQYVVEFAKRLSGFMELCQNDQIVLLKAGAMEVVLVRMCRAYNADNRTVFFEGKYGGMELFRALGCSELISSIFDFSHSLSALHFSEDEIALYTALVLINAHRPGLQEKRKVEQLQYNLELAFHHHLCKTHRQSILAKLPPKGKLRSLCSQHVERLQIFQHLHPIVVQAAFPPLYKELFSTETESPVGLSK

[2] = system: HPAF-II; assay: Antitumor activity against human HPAF-II cells measured after 72 hrs; format: functional, cell-based
[3] = system: HPAF-II; assay: Induction of apoptosis in human HPAF-II cells assessed as viable cells at 1 uM incubated for 48 hrs by Annexin V-FITC/PI staining based flow cytometry (reference value: 89.73 %); format: functional; conditions: read-out: Activity
[4] = system: HPAF-II; assay: Induction of apoptosis in human HPAF-II cells assessed as early apoptotic cells at 1 uM incubated for 48 hrs by Annexin V-FITC/PI staining based flow cytometry (reference value: 0.90 %); format: functional
[5] = system: HPAF-II; assay: Induction of apoptosis in human HPAF-II cells assessed as late apoptotic cells at 1 uM incubated for 48 hrs by Annexin V-FITC/PI staining based flow cytometry (reference value: 1.28 %); format: functional
[6] = system: HPAF-II; assay: Induction of apoptosis in human HPAF-II cells assessed as necrotic cells at 1 uM incubated for 48 hrs by Annexin V-FITC/PI staining based flow cytometry (reference value: 8.09 %); format: functional
[7] = system: NCI-H23; assay: Induction of apoptosis in human NCI-H23 cells assessed as viable cells at 10 uM incubated for 48 hrs by Annexin V-FITC/PI staining based flow cytometry (reference value: 92.16 %); format: functional; conditions: read-out: Activity
[8] = system: NCI-H23; assay: Induction of apoptosis in human NCI-H23 cells assessed as early apoptotic cells at 10 uM incubated for 48 hrs by Annexin V-FITC/PI staining based flow cytometry (reference value: 4.17 %); format: functional
[9] = system: NCI-H23; assay: Induction of apoptosis in human NCI-H23 cells assessed as late apoptotic cells at 10 uM incubated for 48 hrs by Annexin V-FITC/PI staining based flow cytometry (reference value: 2.89 %); format: functional
[10] = system: NCI-H23; assay: Induction of apoptosis in human NCI-H23 cells assessed as necrotic cells at 10 uM incubated for 48 hrs by Annexin V-FITC/PI staining based flow cytometry (reference value: 0.78 %); format: functional

Kd [1] | IC50 [2] | Compound | other results
420 nM | 350 nM | C=C(C)[C@@H]1CC[C@]2(C(=O)NC[C@H]3CCCN3C)CC[C@]3(C)[C@H](CC[C@@H]4[C@@]5(C)CC[C@H](O)C(C)(C)[C@@H]5CC[C@]43C)[C@@H]12 | 
340 nM | 300 nM | C=C(C)[C@@H]1CC[C@]2(C(=O)N[C@@H]3CCCN(C)C3)CC[C@]3(C)[C@H](CC[C@@H]4[C@@]5(C)CC[C@H](O)C(C)(C)[C@@H]5CC[C@]43C)[C@@H]12 | 
1870 nM | 210 nM | C=C(C)[C@@H]1CC[C@]2(C(=O)N[C@H]3CCN(C)C3)CC[C@]3(C)[C@H](CC[C@@H]4[C@@]5(C)CC[C@H](O)C(C)(C)[C@@H]5CC[C@]43C)[C@@H]12 | 
670 nM | 380 nM | C=C(C)[C@@H]1CC[C@]2(C(=O)N[C@@H]3CCN(C)C3)CC[C@]3(C)[C@H](CC[C@@H]4[C@@]5(C)CC[C@H](O)C(C)(C)[C@@H]5CC[C@]43C)[C@@H]12 | 
 | 360 nM | C=C(C)[C@@H]1CC[C@]2(C(=O)NC[C@H]3CCN(C)C3)CC[C@]3(C)[C@H](CC[C@@H]4[C@@]5(C)CC[C@H](O)C(C)(C)[C@@H]5CC[C@]43C)[C@@H]12 | 
960 nM | 350 nM | C=C(C)[C@@H]1CC[C@]2(C(=O)N[C@H]3CCCN(C)C3)CC[C@]3(C)[C@H](CC[C@@H]4[C@@]5(C)CC[C@H](O)C(C)(C)[C@@H]5CC[C@]43C)[C@@H]12 | 
290 nM | 310 nM | C=C(C)[C@@H]1CC[C@]2(C(=O)NCCN3CCC(O)C3)CC[C@]3(C)[C@H](CC[C@@H]4[C@@]5(C)CC[C@H](O)C(C)(C)[C@@H]5CC[C@]43C)[C@@H]12 (stereo partly drawn) | 
660 nM | 320 nM | C=C(C)[C@@H]1CC[C@]2(C(=O)NC[C@@H]3CCCN3C)CC[C@]3(C)[C@H](CC[C@@H]4[C@@]5(C)CC[C@H](O)C(C)(C)[C@@H]5CC[C@]43C)[C@@H]12 | 
 | 320 nM | C=C(C)[C@@H]1CC[C@]2(C(=O)NC[C@@H]3CCN(C)C3)CC[C@]3(C)[C@H](CC[C@@H]4[C@@]5(C)CC[C@H](O)C(C)(C)[C@@H]5CC[C@]43C)[C@@H]12 | 

The next lines start with the compound.

Compound | Kd [1] | IC50 [2] | other results
C=C(C)[C@@H]1CC[C@]2(C(=O)NC3CCNCC3)CC[C@]3(C)[C@H](CC[C@@H]4[C@@]5(C)CC[C@H](O)C(C)(C)[C@@H]5CC[C@]43C)[C@@H]12 | 1960 nM | 1210 nM | 
C=C(C)[C@@H]1CC[C@]2(C(=O)NCc3cncs3)CC[C@]3(C)[C@H](CC[C@@H]4[C@@]5(C)CC[C@H](O)C(C)(C)[C@@H]5CC[C@]43C)[C@@H]12 | 780 nM | 9300 nM | 
C=C(C)[C@@H]1CC[C@]2(C(=O)NCCN(C)CCN(C)C)CC[C@]3(C)[C@H](CC[C@@H]4[C@@]5(C)CC[C@H](O)C(C)(C)[C@@H]5CC[C@]43C)[C@@H]12 | 1880 nM | 380 nM | 
C=C(C)[C@@H]1CC[C@]2(C(=O)NCCN(CC)CCO)CC[C@]3(C)[C@H](CC[C@@H]4[C@@]5(C)CC[C@H](O)C(C)(C)[C@@H]5CC[C@]43C)[C@@H]12 | 1110 nM | 220 nM | 
C=C1C[C@]2(C)[C@H]3CC[C@@H]4[C@H]5[C@H](C(=C)C)CC[C@]5(C(=O)NCCCN(C)C)CC[C@@]4(C)[C@]3(C)CC[C@H]2C(C)(C)C1=O | 6390 nM | 760 nM | 
O=S(=O)(c1ccccc1)N(CC(F)(F)F)c1ccc(C(O)(C(F)(F)F)C(F)(F)F)cc1 [T091317] |  |  | viability at 1 µM [3]: 79.8%; Activity [4]: 8.56%; Activity [5]: 7.38%; Activity [6]: 6.3%; viability at 10 µM [7]: 90.2%; Activity [8]: 2.68%; Activity [9]: 3.82%; Activity [10]: 3.3%
C=C(C)[C@@H]1CC[C@]2(C(=O)NCCNc3ccncc3)CC[C@]3(C)[C@H](CC[C@@H]4[C@@]5(C)CC[C@H](O)C(C)(C)[C@@H]5CC[C@]43C)[C@@H]12 | 590 nM | 310 nM | 
CN(C)CCCNC(=O)[C@]12CC[C@@H](C3(C)CC3)[C@@H]1[C@H]1CC[C@@H]3[C@@]4(C)CC[C@H](O)C(C)(C)[C@@H]4CC[C@@]3(C)[C@]1(C)CC2 | 240 nM | 120 nM | 
C=C(C)[C@@H]1CC[C@]2(C(=O)N[C@@H]3CN4CCC3CC4)CC[C@]3(C)[C@H](CC[C@@H]4[C@@]5(C)CC[C@H](O)C(C)(C)[C@@H]5CC[C@]43C)[C@@H]12 | 120 nM | 130 nM | 
C=C(C)[C@@H]1CC[C@]2(C(=O)NCCCN(C)C)CC[C@]3(C)[C@H](CC[C@@H]4[C@@]5(C)C[C@H](O)C(C)(C)[C@@H]5CC[C@]43C)[C@@H]12 | 3060 nM | 2780 nM | 
C=C(C)[C@@H]1CC[C@]2(C(=O)NCCOCCN(C)C)CC[C@]3(C)[C@H](CC[C@@H]4[C@@]5(C)CC[C@H](O)C(C)(C)[C@@H]5CC[C@]43C)[C@@H]12 | 520 nM | 320 nM | 
C=C(C)[C@@H]1CC[C@]2(C(=O)NCCCN(C)C)CC[C@]3(C)[C@H](CC[C@@H]4[C@@]5(C)CC[C@H](N)C(C)(C)[C@@H]5CC[C@]43C)[C@@H]12 | 4550 nM | 370 nM | 
C=C(C)[C@@H]1CC[C@]2(C(=O)NCC(C)(C)CN(C)C)CC[C@]3(C)[C@H](CC[C@@H]4[C@@]5(C)CC[C@H](O)C(C)(C)[C@@H]5CC[C@]43C)[C@@H]12 | 2900 nM | 440 nM | 
C=C(C)[C@@H]1CC[C@]2(C(=O)NC3CCCN(C)CC3)CC[C@]3(C)[C@H](CC[C@@H]4[C@@]5(C)CC[C@H](O)C(C)(C)[C@@H]5CC[C@]43C)[C@@H]12 (stereo partly drawn) | 250 nM | 110 nM | 
C=C(C)[C@@H]1CC[C@]2(C(=O)Nc3nccs3)CC[C@]3(C)[C@H](CC[C@@H]4[C@@]5(C)CC[C@H](O)C(C)(C)[C@@H]5CC[C@]43C)[C@@H]12 | 5460 nM | 1960 nM | 
C=C(C)[C@@H]1CC[C@]2(C(=O)NCCN3CCCC3)CC[C@]3(C)[C@H](CC[C@@H]4[C@@]5(C)CC[C@H](O)C(C)(C)[C@@H]5CC[C@]43C)[C@@H]12 | 870 nM | 230 nM | 
C=C(C)[C@@H]1CC[C@]2(C(=O)NCCN(CC)CC)CC[C@]3(C)[C@H](CC[C@@H]4[C@@]5(C)CC[C@H](O)C(C)(C)[C@@H]5CC[C@]43C)[C@@H]12 | 720 nM | 120 nM | 
C=C(C)[C@@H]1CC[C@]2(C(=O)NCc3cc[nH]n3)CC[C@]3(C)[C@H](CC[C@@H]4[C@@]5(C)CC[C@H](O)C(C)(C)[C@@H]5CC[C@]43C)[C@@H]12 | 780 nM | 7030 nM | 
